Data reported in the supplement of paper PMC10307832.

Tests used:
Assay in all cases: relative viability (nuclei count vs DMSO), 5 days (fraction); higher = more cells survive
NCI-H520 = system: NCI-H520
How it was run: (§1)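 The day after seeding in 1536-well plates, lung cancer cell lines were treated by pin tool with a single drug, or with a fixed anchor-drug dose together with five library-drug doses (not always all listed) in √10 steps. After 5 days, a combined fix-and-stain solution (final 0.05% Triton X-100, 1% formaldehyde, 1 ug/ml Hoechst) was added. Nuclei counted on 4× images gave relative viability as treated counts over vehicle counts, reported as the median of duplicate plates.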

NCI-H1755 = system: NCI-H1755
How it was run: as §1

PC-3 [JPC-3] = system: PC-3 [JPC-3]
How it was run: as §1

LK-2 = system: LK-2
How it was run: as §1

NCI-H596 = system: NCI-H596
How it was run: as §1

ChaGo-K-1 = system: ChaGo-K-1
How it was run: as §1

EKVX = system: EKVX
How it was run: as §1

NCI-H441 = system: NCI-H441
How it was run: as §1

A-427 = system: A-427
How it was run: as §1

COR-L 105 = system: COR-L 105
How it was run: as §1

SK-MES-1 = system: SK-MES-1
How it was run: as §1

H3255 = system: H3255
How it was run: as §1

NCI-H23 = system: NCI-H23
How it was run: as §1

NCI-H2170 = system: NCI-H2170
How it was run: as §1

SW 900 = system: SW 900
How it was run: as §1

LOU-NH91 = system: LOU-NH91
How it was run: as §1

NCI-H1975 = system: NCI-H1975
How it was run: as §1

HCC-366 = system: HCC-366
How it was run: as §1

NCI-H1734 = system: NCI-H1734
How it was run: as §1

EMC-BAC-2 = system: EMC-BAC-2
How it was run: as §1

NCI-H1666 = system: NCI-H1666
How it was run: as §1

SMILES: COc1cc2nccc(Oc3ccc(NC(=O)Nc4cc(C)on4)c(Cl)c3)c2cc1OC [Tivozanib] + O=C(c1cc(Cc2n[nH]c(=O)c3ccccc23)ccc1F)N1CCN(C(=O)C2CC2)CC1 [Olaparib] (partner 8 µM)
- relative viability (NCI-H520; first compound 0.005 µM): 0.42
- relative viability (NCI-H520; first compound 0.01581 µM): 0.354
- relative viability (NCI-H520; first compound 0.05 µM): 0.334
- relative viability (NCI-H520; first compound 0.1581 µM): 0.315
- relative viability (NCI-H520; first compound 0.5 µM): 0.301
- relative viability (NCI-H1755; first compound 0.005 µM): 0.835
- relative viability (NCI-H1755; first compound 0.01581 µM): 0.829
- relative viability (NCI-H1755; first compound 0.05 µM): 0.936
- relative viability (NCI-H1755; first compound 0.1581 µM): 0.773
- relative viability (NCI-H1755; first compound 0.5 µM): 0.784
- relative viability (PC-3 [JPC-3]; first compound 0.01581 µM): 1.22
- relative viability (PC-3 [JPC-3]; first compound 0.05 µM): 1.11
- relative viability (PC-3 [JPC-3]; first compound 0.1581 µM): 1.15
- relative viability (PC-3 [JPC-3]; first compound 0.5 µM): 1.09
- relative viability (LK-2; first compound 0.005 µM): 0.67
- relative viability (LK-2; first compound 0.01581 µM): 0.759
- relative viability (LK-2; first compound 0.05 µM): 0.691
- relative viability (LK-2; first compound 0.1581 µM): 0.573
- relative viability (LK-2; first compound 0.5 µM): 0.613
- relative viability (NCI-H596; first compound 0.005 µM): 0.621
- relative viability (NCI-H596; first compound 0.01581 µM): 0.696
- relative viability (NCI-H596; first compound 0.05 µM): 0.773
- relative viability (NCI-H596; first compound 0.5 µM): 0.706
- relative viability (ChaGo-K-1; first compound 0.005 µM): 0.386
- relative viability (ChaGo-K-1; first compound 0.01581 µM): 0.381
- relative viability (ChaGo-K-1; first compound 0.05 µM): 0.409
- relative viability (ChaGo-K-1; first compound 0.1581 µM): 0.412
- relative viability (ChaGo-K-1; first compound 0.5 µM): 0.37
- relative viability (EKVX; first compound 0.005 µM): 0.801
- relative viability (EKVX; first compound 0.01581 µM): 0.881
- relative viability (EKVX; first compound 0.05 µM): 0.908
- relative viability (EKVX; first compound 0.1581 µM): 0.922
- relative viability (EKVX; first compound 0.5 µM): 0.725
- relative viability (NCI-H441; first compound 0.005 µM): 0.538
- relative viability (NCI-H441; first compound 0.01581 µM): 0.531
- relative viability (NCI-H441; first compound 0.05 µM): 0.525
- relative viability (NCI-H441; first compound 0.1581 µM): 0.432
- relative viability (NCI-H441; first compound 0.5 µM): 0.396
- relative viability (A-427; first compound 0.005 µM): 0.667
- relative viability (A-427; first compound 0.01581 µM): 0.747
- relative viability (A-427; first compound 0.05 µM): 0.774
- relative viability (A-427; first compound 0.1581 µM): 0.709
- relative viability (A-427; first compound 0.5 µM): 0.737
- relative viability (COR-L 105; first compound 0.005 µM): 0.629
- relative viability (COR-L 105; first compound 0.01581 µM): 0.558
- relative viability (COR-L 105; first compound 0.05 µM): 0.773
- relative viability (COR-L 105; first compound 0.1581 µM): 0.713
- relative viability (COR-L 105; first compound 0.5 µM): 0.705
- relative viability (SK-MES-1; first compound 0.005 µM): 0.661
- relative viability (SK-MES-1; first compound 0.01581 µM): 0.623
- relative viability (SK-MES-1; first compound 0.05 µM): 0.772
- relative viability (SK-MES-1; first compound 0.1581 µM): 0.62
- relative viability (SK-MES-1; first compound 0.5 µM): 0.583
- relative viability (H3255; first compound 0.005 µM): 0.544
- relative viability (H3255; first compound 0.01581 µM): 0.56
- relative viability (H3255; first compound 0.05 µM): 0.541
- relative viability (H3255; first compound 0.1581 µM): 0.602
- relative viability (H3255; first compound 0.5 µM): 0.513
- relative viability (NCI-H23; first compound 0.005 µM): 0.363
- relative viability (NCI-H23; first compound 0.01581 µM): 0.288
- relative viability (NCI-H23; first compound 0.05 µM): 0.347
- relative viability (NCI-H23; first compound 0.5 µM): 0.253
- relative viability (NCI-H2170; first compound 0.005 µM): 0.484
- relative viability (NCI-H2170; first compound 0.01581 µM): 0.596
- relative viability (NCI-H2170; first compound 0.05 µM): 0.642
- relative viability (NCI-H2170; first compound 0.5 µM): 0.523
- relative viability (SW 900; first compound 0.005 µM): 0.779
- relative viability (SW 900; first compound 0.01581 µM): 0.817
- relative viability (SW 900; first compound 0.05 µM): 0.776
- relative viability (SW 900; first compound 0.5 µM): 0.855
- relative viability (LOU-NH91; first compound 0.005 µM): 0.894
- relative viability (LOU-NH91; first compound 0.01581 µM): 0.902
- relative viability (LOU-NH91; first compound 0.05 µM): 0.932
- relative viability (LOU-NH91; first compound 0.1581 µM): 0.891
- relative viability (LOU-NH91; first compound 0.5 µM): 0.871
- relative viability (NCI-H1975; first compound 0.005 µM): 0.753
- relative viability (NCI-H1975; first compound 0.01581 µM): 0.815
- relative viability (NCI-H1975; first compound 0.05 µM): 0.756
- relative viability (NCI-H1975; first compound 0.1581 µM): 0.76
- relative viability (NCI-H1975; first compound 0.5 µM): 0.662
- relative viability (HCC-366; first compound 0.005 µM): 0.367
- relative viability (HCC-366; first compound 0.01581 µM): 0.365
- relative viability (HCC-366; first compound 0.05 µM): 0.37
- relative viability (HCC-366; first compound 0.1581 µM): 0.363
- relative viability (HCC-366; first compound 0.5 µM): 0.352
- relative viability (NCI-H1734; first compound 0.005 µM): 0.716
- relative viability (NCI-H1734; first compound 0.01581 µM): 0.6
- relative viability (NCI-H1734; first compound 0.05 µM): 0.743
- relative viability (NCI-H1734; first compound 0.1581 µM): 0.564
- relative viability (NCI-H1734; first compound 0.5 µM): 0.609
- relative viability (EMC-BAC-2; first compound 0.005 µM): 0.492
- relative viability (EMC-BAC-2; first compound 0.01581 µM): 0.543
- relative viability (EMC-BAC-2; first compound 0.05 µM): 0.469
- relative viability (EMC-BAC-2; first compound 0.1581 µM): 0.472
- relative viability (EMC-BAC-2; first compound 0.5 µM): 0.358
- relative viability (NCI-H1666; first compound 0.005 µM): 0.777
- relative viability (NCI-H1666; first compound 0.01581 µM): 0.713
- relative viability (NCI-H1666; first compound 0.05 µM): 0.739
- relative viability (NCI-H1666; first compound 0.1581 µM): 0.802
- relative viability (NCI-H1666; first compound 0.5 µM): 0.719
